Results on four compounds are retold here after patent publication US8093243B2, “Hepatitis C virus inhibitors” (Bristol-Myers Squibb Company, priority 2008, dated 2012).

Read-outs that look alike come from different tables or passages of the source.

The test system of this assay is HCV 1b genotype. As to the kind of experiment: HCV replicon assay (HCV-neo replicon cells). It counts as cell-based. To be noted: Hepatitis C virus, HCV 1b genotype replicon. As to the method:
An HCV Replion assay was utilized in the present disclosure, and was prepared, conducted and validated as described in commonly owned PCT/US2006/022197 and in O'Boyle et. al. Antimicrot Agents Chemother. 2005 April; 49(4):1346-53.
HCV-neo replicon cells were used to test the currently described compound series as well as cells resistant to compound A containing mutations in NS5A (described in application PCT/US2006/022197). The compounds tested were determined to have more than 10-fold less inhibitory activity on cells containing the mutation than wild-type cells indicating a related mechanism of action between the two compound series. Thus, the compounds of the present disclosure can be effective to inhibit the function of the HCV NS5A protein and are understood to be as effective in combinations as previously described in application PCT/US2006/022197 and commonly owned WO 04/014852. Further, the compounds of the present disclosure can be effective against the HCV 1b genotype. It should also be understood that the compounds of the present disclosure can inhibit multiple genotypes of HCV. […] In one embodiment compounds of the present disclosure are active against the 1a, 1b, 2a, 2b, 3a, 4a, and 5a genotypes. Activity ranges are as follows: A=501 nM-1 μM; B 1-500 nM; C=100-999 pM.

As for `c1nc(Nc2ccc(N3CCOCC3)cc2)c2cc(-c3ccc(-c4cnc([C@@H]5CCCN5)[nH]4)cc3)ccc2n1` [Example 1 step f], the EC50 (read-out: EC50 Range/Value) is 1510 nM.

As to `COC(=O)N[C@H](C(=O)N1CCC[C@H]1c1ncc(-c2ccc(-c3ccc4ncnc(Nc5ccc(N6CCOCC6)cc5)c4c3)cc2)[nH]1)C(C)C` [Example 1], the EC50 (activity range class) is 1 to 500 nM.

As to `CC(=O)N1CCC[C@H]1c1ncc(-c2ccc(-c3ccc4ncnc(Nc5ccc(N6CCOCC6)cc5)c4c3)cc2)[nH]1` [Example 6], the EC50 (activity range class) lay within 501 to 1000 nM.

`CC(C)(C)OC(=O)N1CCC[C@H]1c1ncc(-c2ccc(-c3ccc4ncnc(Nc5ccc(N6CCOCC6)cc5)c4c3)cc2)[nH]1` [Example 1 step e]: the EC50 (activity range class) was in the range of 1 to 500 nM.
